Test results from paper PMC10107299, “Neutralizing the Impact of the Virulence Factor LecA from Pseudomonas aeruginosa on Human Cells with New Glycomimetic Inhibitors” (Angewandte Chemie (International Ed. in English), 2023).

What was measured:
P. aeruginosa PAO1 = assay: Invasion assay of P. aeruginosa PAO1 into H1299 cells; type: cell-based, Pseudomonas aeruginosa
Protocol: P. aeruginosa is able to invade non‐phagocytic cells via a lipid zipper mechanism.[10] Binding of LecA to the glycosphingolipid Gb3 followed by LecA‐induced receptor clustering plays a crucial role in this process. The LecA ligand 4‐nitrophenyl α‐ D‐galactopyranoside (PNPG) has been previously shown to interfere with these events at a high concentration of 10 mM leading to a reduction of bacterial invasiveness to 30–60 % as compared to untreated bacteria (100 % invasiveness).[10, 31] For invasion assays, H1299 cells were incubated with P. aeruginosa in presence and absence of LecA inhibitors, followed by killing of extracellular bacteria with the antibiotic amikacin. Then, all intracellular bacteria were released by lysis of the human cells and viable bacteria were quantified by plating. To assess the impact of LecA inhibitors on the invasiveness, the influence of the divalent LecA inhibitor L2 on bacterial invasion into host cells was evaluated and compared to PNPG. […] In contrast, the divalent LecA ligand L2 achieved an invasion decrease to 44 % already at 100 μM (Figure 5c). L2 was thus able to reach a similar reduction of invasion at a 100‐fold lower concentration than the one needed for PNPG. […]
lectin-inhibitor solution for 24 h at 37 °C. In order to depict exactly the same position for each wound, marker lines were drawn on the bottom of the 12-well plates for each well. The samples were imaged with an EVOS microscope (PEQLAB by VWR Life Sciences, Avantor […]
Excel. […]
A chromosomally GFP-tagged Gentamicin-resistant Pseudomonas aeruginosa PAO1 strain was cultured (LB medium supplemented with 60 µg/mL Gentamicin, 37 °C, 180 rpm, 16 h) and invasion assays were performed in analogy to Eierhoff et al..[13] 1.5 x 10^4 H1299 cells per well were seeded one day prior to the invasion assay in a 96-well plate with flat bottom. An […]
overnight culture of P. aeruginosa was centrifuged for 5 min at 3000 x g, washed with PBS (- /-) and re-suspended in RPMI 1640 medium. The newly synthesized divalent LecA ligand L2 was compared to 4-nitrophenyl α-D-galactopyranoside (PNPG; Sigma-Aldrich, Chemie GmbH, Darmstadt, Germany). […]
Subsequently, cells were washed three times with DPBS and lysed by incubation with 0.25% (v/v) Triton X-100 (Carl Roth GmbH & Co. KG, Karlsruhe, Germany) for 5 min at 37 °C and 180 rpm. […] Bacterial colonies were counted the next day. […] The invasion rate was calculated as the number of intracellularly localized bacteria divided by the total number of non-treated bacteria, bacteria that were not treated with any ligands and neither amikacin, thus the number of P. aeruginosa that successfully invaded or stayed attached to the host cells. Experiments were repeated independently at least four times (N ≥ 4) and evaluated […]

plasma protein = assay: Plasma protein binding (rapid equilibrium device), human plasma; type: in vitro ADME; conditions: 1 µM
Protocol: mixer (Eppendorf). Acetonitrile and caffeine were dispensed using a Mantis Formulatrix. Then samples were centrifuged for 20 min at 2.270 x g at 4 °C and the supernatants were transferred to 96-well Greiner V-bottom plates. Peak areas of each compound and of the internal standard were analyzed using the MultiQuant 3.0 software (AB Sciex). Peak areas of the respective compound were normalized to the internal standard peak area and to the respective peak areas at time point 0 min: (C/D)/(A/B) with A: peak area of the compound at time point 0 min, B: peak area of the internal standard at time point 0 min, C: peak area of the compound at the respective time point, D: peak area of the internal standard at the respective time point. […]
Assessment of plasma protein binding
Plasma protein binding was assessed using the rapid equilibrium device (RED) system from ThermoFisher. Compounds were dissolved in DMSO. […]
high plasma protein binding. Compounds were diluted in murine plasma (from CD-1 mice, pooled) or in human plasma (human donors, both genders, pooled) to a final concentration of 1 µM. Dialysis buffer and plasma samples were added to the respective chambers according the manufacturer’s protocol. The RED plate was sealed with a tape and incubated at 37 °C for 2 hours at 800 rpm on an Eppendorf MixMate vortex-mixer. Then samples were withdrawn from the respective chambers. To 25 µL of each dialysis sample, 25 µL of plasma and to 25 µL of plasma sample, 25 µL of dialysis buffer was added. Then 150 µL ice-cold extraction solvent (ACN/H2O (90:10) containing 12.5 ng/mL caffeine as internal standard) was added. Samples were incubated for 30 min on ice. Then samples were centrifuged at 4 °C at 2270 x g for 10 min.
Supernatants were transferred to Greiner V-bottom 96-well plates and sealed with a tape. The […]
percentage of bound compound was calculated as follows:
(1) % free = (concentration buffer chamber / concentration plasma chamber) *100 […]
Samples were analyzed using an Agilent 1290 Infinity II HPLC system coupled to an AB Sciex QTrap 6500plus mass spectrometer. LC conditions were as follows: column: Agilent […]
Zorbax Eclipse Plus C18, 50x2.1 mm, 1.8 µm; temperature: 30 °C; injection volume: 5 µL per […]
sample; flow rate: 700 µL/min. Samples were run under acidic and buffered conditions.
Solvents for acidic conditions: A1: water + 0.1% formic acid; solvent B1: 95% acetonitrile/5% […]
H2O + 0.1% formic acid; solvents for buffered conditions: A2: 95% water + 5% acetonitrile + […]
5 mM ammonium acetate + 40 µL/L acetic acid; B2: 95% acetonitrile + 5% water + 5 mM […]
ammonium acetate + 40 µL/L acetic acid. The same gradient was applied for acidic and […]
buffered conditions: 99% A at 0 min, 99% A until 1 min, 99% - 0% A from 1 min to 4.0 min, […]
0% A until 5.0 min. Mass transitions for controls and compounds are depicted in the following […]

O=C(CCc1ccc(O[C@@H]2O[C@H](CO)[C@H](O)[C@H](O)[C@H]2O)cc1)Nc1ccc(CCc2ccc(NC(=O)CCc3ccc(O[C@@H]4O[C@H](CO)[C@H](O)[C@H](O)[C@H]4O)cc3)cc2S(=O)(=O)O)c(S(=O)(=O)O)c1 [Compound L2] was tested, and the “Lower concentration than PNPG for similar reduction of invasion” value (P. aeruginosa PAO1; 100 μM L2 vs 10 mM PNPG) was 100 fold, the “Bacterial invasiveness (untreated bacteria 100 %)” value (P. aeruginosa PAO1; 100 μM inhibitor, PAO1 into H1299 cells, N≥4) was 44% and the “PPB Human” value (plasma protein) was 38.5 ± 12.4%.
